Here are results for two compounds from patent US6436373B1, “Oligomeric diarylbutadienes” (BASF Aktiengesellschaft, priority 1998, dated 2002).

A short description of this data set: UV absorption (λmax and specific absorbance E1^1). It counts as physicochemical. Particulars: for λmax.: UV absorption maximum, no unit or solvent printed; for E1^1: specific absorbance at λmax, solvent not given.

Take `CCOC(=O)/C(=C/C=C(c1ccccc1)c1ccccc1)C(=O)OCCOC(=O)/C(=C\C=C(c1ccccc1)c1ccccc1)C(=O)OCC` [Example 2]: the λmax. is reported as 336 and the “E1^1” value is listed as 800.
The corresponding values for `N#C/C(=C/C=C(c1ccccc1)c1ccccc1)C(=O)OCCOC(=O)/C(C#N)=C\C=C(c1ccccc1)c1ccccc1` [Example 3] are 354 and 850.
